# Reference: ChEMBL document CHEMBL3822388, “In vivo phenotypic drug discovery: applying a behavioral assay to the discovery and optimization of novel antipsychotic agents” (Medchemcomm, 2016)
# The source made the active and inactive calls. The calls are words filed in the database; no cut-off is given here.
# How the values were obtained:
# [1] = tested on: Mus musculus; assay: Antipsychotic activity in ip dosed mouse administered 15 mins prior to testing by SmartCube automated system based method; assay type: functional; conditions: for minimal effective dose: Mus musculus, ip, read-out: MED
# [2] = Chemical stability of the compound in 20 mM NH4Ac buffer solution at pH 7.1 after 96 hrs by HPLC analysis; assay type: physicochemical; conditions: pH 7.1, 96 h
# [3] = Drug metabolism in mouse liver microsomes assessed as formation of 4-(3,4-dimethylthiophen-2-yl)pyrimidine at 3 uM in presence of NADPH by LC-MS/MS analysis; assay type: ADME
# [4] = tested on: Liver microsome; assay: Drug metabolism in human liver microsomes assessed as formation of 4-(3,4-dimethylthiophen-2-yl)pyrimidine at 3 uM in presence of NADPH by LC-MS/MS analysis; assay type: ADME
# [5] = Chemical stability of the compound in 0.01 M HCl at pH 2 after 96 hrs by HPLC analysis; assay type: physicochemical; conditions: buffer, pH 2, 96 h
# [6] = tested on: Mus musculus; assay: Antipsychotic activity in mouse at 30 mg/kg, ip administered 15 mins prior to testing by SmartCube automated system based method relative to standard compound; assay type: functional
# [7] = target: D(2) dopamine receptor (Homo sapiens) (UniProt P14416); assay: Displacement of [3H]methyl-spiperone from human recombinant D2 receptor expressed in HEK293 cells at 30 uM after 60 mins by scintillation counting analysis; assay type: cell-based
# Sequence of D(2) dopamine receptor (Homo sapiens) (P14416 whole entry): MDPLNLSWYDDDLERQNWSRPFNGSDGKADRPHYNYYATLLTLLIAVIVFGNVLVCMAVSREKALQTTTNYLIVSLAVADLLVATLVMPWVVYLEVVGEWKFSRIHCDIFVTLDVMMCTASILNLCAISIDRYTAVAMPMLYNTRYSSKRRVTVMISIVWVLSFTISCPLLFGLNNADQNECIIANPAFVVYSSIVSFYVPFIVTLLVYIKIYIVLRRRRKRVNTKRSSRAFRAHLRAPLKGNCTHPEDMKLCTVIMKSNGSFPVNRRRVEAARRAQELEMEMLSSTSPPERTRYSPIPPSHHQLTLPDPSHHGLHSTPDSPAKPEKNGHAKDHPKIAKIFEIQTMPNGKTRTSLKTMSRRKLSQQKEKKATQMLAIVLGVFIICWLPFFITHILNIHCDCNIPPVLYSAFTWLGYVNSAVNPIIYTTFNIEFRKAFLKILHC
Compound,minimal effective dose [1] [mg/kg],further results
CC1=CN=CNC1c1c(C)sc2ccccc12.Cl (stereo unspecified),30,–
Cc1sc2c(F)cccc2c1C1C=CN=CN1.Cl (stereo unspecified),10,–
Cc1sc2ccc(Cl)cc2c1C1C=CN=CN1.Cl (stereo unspecified),3,–
CCc1cc(Br)c(C2C=CN=CN2)s1.Cl (stereo unspecified),30,–
Cc1csc(C2C=CN=CN2)c1C.Cl (stereo in doubt; 12a),–,Stability [2]: Unstable; Drug metabolism [3]: metabolite_notdetected; Drug metabolism [4]: metabolite_notdetected; MED [1]: 3 mg/kg; Stability [5]: Stable
CC1=CN=CNC1c1sc2ccccc2c1C (stereo unspecified),–,Activity [6]: Active
Cl.Fc1ccc(-c2ccc(C3C=CN=CN3)s2)cc1 (stereo unspecified),3,–
Cc1sc2ccccc2c1C1NC=Nc2cc(F)ccc21.Cl (stereo unspecified),30,–
Cc1sc2c(c1C1C=CN=CN1)CCCC2.Cl (stereo unspecified),10,–
CCc1ccc(C2C=CN=CN2)s1.Cl (stereo unspecified),10,–
Cc1sc2ccccc2c1C1C=CN=CN1C.Cl (stereo unspecified),30,–
CC1=NC=CC(c2c(C)sc3ccccc23)N1.Cl (stereo unspecified),30,–
Cc1csc(C2C=CN=CN2)c1C (stereo unspecified),–,inhibition [7]: 18%; Activity [6]: Active
Cc1csc(C2C=CN=CN2)c1C.Cl (stereo in doubt; 12b),–,MED [1]: 30 mg/kg
Cl.Fc1sc2ccccc2c1C1NC=NC=C1Cl (stereo unspecified),30,–
Cc1sc2cccc(F)c2c1C1C=CN=CN1.Cl (stereo unspecified),3,–
